Data: PubChem BioAssay (NCI)
“And” between values parts separate entries of the source, which are not always exact repeats. Identical values can stand only once.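 The compound was tested at five concentrations on cells cultured in 96-well plates, with a 48-hour exposure period. GI50: concentration for 50% inhibition of growth. Definition used: TGI = concentration required for complete inhibition of growth.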

How the values were obtained:
Test in all cases: NCI tumour cell line growth inhibition, 48 h
SF-268 CNS = system: SF-268 CNS
BT-549 breast = system: BT-549 breast
NCI-H23 lung = system: NCI-H23 lung
U251 CNS = system: U251 CNS
NCI-H226 lung = system: NCI-H226 lung
T-47D breast = system: T-47D breast
UACC-257 melanoma = system: UACC-257 melanoma
RPMI-8226 leukemia = system: RPMI-8226 leukemia
A549 NSCLC = system: A549 NSCLC
SK-OV-3 ovarian = system: SK-OV-3 ovarian
M14 melanoma = system: M14 melanoma
OVCAR-3 ovarian = system: OVCAR-3 ovarian
HOP-92 NSCLC = system: HOP-92 NSCLC
SN12C renal = system: SN12C renal
SK-MEL-28 melanoma = system: SK-MEL-28 melanoma
NCI/ADR-RES ovarian = system: NCI/ADR-RES ovarian
SF-295 CNS = system: SF-295 CNS
NCI-H460 lung = system: NCI-H460 lung
MDA-MB-468 breast = system: MDA-MB-468 breast
ACHN renal = system: ACHN renal
KM12 colon = system: KM12 colon
SK-MEL-2 melanoma = system: SK-MEL-2 melanoma
HCT-116 colon = system: HCT-116 colon
SNB-75 CNS = system: SNB-75 CNS
MALME-3M melanoma = system: MALME-3M melanoma
UACC-62 melanoma = system: UACC-62 melanoma
EKVX NSCLC = system: EKVX NSCLC
OVCAR-8 ovarian = system: OVCAR-8 ovarian
K-562 leukemia = system: K-562 leukemia
DU-145 prostate = system: DU-145 prostate
OVCAR-5 ovarian = system: OVCAR-5 ovarian
OVCAR-4 ovarian = system: OVCAR-4 ovarian
NCI-H522 lung = system: NCI-H522 lung
SR leukemia = system: SR leukemia
HS 578T breast = system: HS 578T breast
HCT-15 colon = system: HCT-15 colon
MDA-MB-435 = system: MDA-MB-435
HL-60(TB) leukemia = system: HL-60(TB) leukemia
HT29 colon = system: HT29 colon
MDA-MB-231 breast = system: MDA-MB-231 breast
HOP-62 NSCLC = system: HOP-62 NSCLC
SNB-19 CNS = system: SNB-19 CNS
COLO 205 colon = system: COLO 205 colon
MOLT-4 leukemia = system: MOLT-4 leukemia
RXF 393 renal = system: RXF 393 renal
HCC-2998 colon = system: HCC-2998 colon
MCF7 breast = system: MCF7 breast
CCRF-CEM leukemia = system: CCRF-CEM leukemia
LOX IMVI melanoma = system: LOX IMVI melanoma
PC-3 prostate = system: PC-3 prostate
SF-539 CNS = system: SF-539 CNS

## CN1CCN(C(=O)Oc2cc3c(c4ccccc24)[C@H](CCl)CN3C(=O)c2cc3cc(OCCCN4CCC4)ccc3[nH]2)[C@H]2CSSC[C@H]21
SF-268 CNS
  GI50: 19.8 nM and 20.1 nM
  TGI: 84.4 nM and 173 nM
BT-549 breast
  GI50: 19.2 nM and 54 nM
  TGI: 74.1 nM and 348 nM
NCI-H23 lung
  GI50: 6.68 nM and 4.34 nM
  TGI: 25.1 nM and 19.6 nM
U251 CNS
  GI50: 18 nM and 3.56 nM
  TGI: 2300 nM
NCI-H226 lung
  GI50: 31.8 nM
  TGI: 1150 nM
T-47D breast
  GI50: 28.6 nM
  TGI: 598 nM
UACC-257 melanoma
  GI50: 27.3 nM and 34.4 nM
  TGI: 135 nM and 86.5 nM
RPMI-8226 leukemia
  GI50: 36 nM and 35.1 nM
A549 NSCLC
  GI50: 4.96 nM
  TGI: > 15300 nM
SK-OV-3 ovarian
  GI50: 23.5 nM and 29.9 nM
  TGI: 59.6 nM and 128 nM
M14 melanoma
  GI50: 15.9 nM and 14.2 nM
  TGI: 70 nM and 46.2 nM
OVCAR-3 ovarian
  GI50: 28.1 nM and 50.5 nM
  TGI: 88.3 nM and 292 nM
HOP-92 NSCLC
  GI50: 67.1 nM
SN12C renal
  GI50: 19.4 nM and 11.6 nM
  TGI: 459 nM and 222 nM
SK-MEL-28 melanoma
  GI50: 18.7 nM
  TGI: 40 nM
NCI/ADR-RES ovarian
  GI50: 13.5 nM
  TGI: 53.6 nM
SF-295 CNS
  GI50: 10.6 nM and 2.14 nM
  TGI: 52 nM and 5.86 nM
NCI-H460 lung
  GI50: 1.63 nM
  TGI: 268 nM
MDA-MB-468 breast
  GI50: 5.3 nM
  TGI: 19.7 nM
ACHN renal
  GI50: 2.5 nM
  TGI: 8.71 nM
KM12 colon
  GI50: 46.2 nM and 90.4 nM
SK-MEL-2 melanoma
  GI50: 28.5 nM and 31.3 nM
  TGI: 62.6 nM and 53.8 nM
HCT-116 colon
  GI50: 8.63 nM and 45.7 nM
  TGI: > 15300 nM
SNB-75 CNS
  GI50: 26 nM
  TGI: 137 nM
MALME-3M melanoma
  GI50: 18.2 nM and 19.3 nM
  TGI: 39.6 nM and 40.9 nM
UACC-62 melanoma
  GI50: 10.5 nM and 4.24 nM
  TGI: 26.4 nM and 21.3 nM
EKVX NSCLC
  GI50: 20.4 nM and 27.3 nM
  TGI: 59.6 nM and 70.7 nM
OVCAR-8 ovarian
  GI50: 15.3 nM and 12.1 nM
K-562 leukemia
  GI50: 24.4 nM and 17.2 nM
  TGI: > 15300 nM
DU-145 prostate
  GI50: 4.29 nM and 5.32 nM
OVCAR-5 ovarian
  GI50: 29 nM and 22.7 nM
  TGI: 360 nM and 86.1 nM
OVCAR-4 ovarian
  GI50: 43.3 nM and 73.5 nM
  TGI: 553 nM and 446 nM
NCI-H522 lung
  GI50: 30.6 nM and 28.3 nM
  TGI: 154 nM and 75.8 nM
SR leukemia
  GI50: 4.72 nM
HS 578T breast
  GI50: 100 nM and 141 nM
  TGI: 591 nM and 810 nM
HCT-15 colon
  GI50: 13.1 nM and 11 nM
  TGI: 40.7 nM and 50.6 nM
MDA-MB-435
  GI50: 20.3 nM and 25.1 nM
  TGI: 47.9 nM and 55.4 nM
HL-60(TB) leukemia
  GI50: 49.8 nM and 28.5 nM
  TGI: 368 nM
HT29 colon
  GI50: 19.7 nM
MDA-MB-231 breast
  GI50: 32.1 nM and 37.8 nM
  TGI: 92.9 nM and 83.7 nM
HOP-62 NSCLC
  GI50: 9.09 nM and 9.6 nM
  TGI: 33.2 nM and 45.3 nM
SNB-19 CNS
  GI50: 23.2 nM and 17.9 nM
  TGI: 2460 nM and 314 nM
COLO 205 colon
  GI50: 25.5 nM and 21.7 nM
  TGI: 106 nM and 50.4 nM
MOLT-4 leukemia
  GI50: 23.5 nM and 14.2 nM
  TGI: 324 nM
RXF 393 renal
  GI50: 17.7 nM and 4.25 nM
  TGI: 37.9 nM and 14.5 nM
HCC-2998 colon
  GI50: 16 nM and 22 nM
  TGI: 47.3 nM and 52.7 nM
MCF7 breast
  GI50: 1.53 nM
  TGI: 1530 nM
CCRF-CEM leukemia
  GI50: 42 nM and 18.4 nM
LOX IMVI melanoma
  GI50: 3.15 nM
  TGI: 24.8 nM
PC-3 prostate
  GI50: 18 nM and 34 nM
  TGI: > 15300 nM
SF-539 CNS
  GI50: 16.8 nM and 22.4 nM
  TGI: 40.6 nM and 55.4 nM
